Measured values from paper PMC11845477, “Exploring the principles behind antibiotics with limited resistance” (Nature Communications, 2025).
Where a SMILES comes first, the peptide text is derived from it. Bridges are numbered along the chain shown (N, C = ends). [ ]: non-standard residue; d: D form. The star is where a group is joined. X2 = CC[C@H](C)CCCCC(=O)*; Dab = NCC[C@H](N)C(=O)O

System: P. aeruginosa ATCC BAA-3107 (SEN) and P. aeruginosa LESB58 (MDR)
Experiment: Adaptive laboratory evolution (ALE), relative MIC of evolved lines
Type: cell-based, Pseudomonas aeruginosa
Source text: Using the same set of bacterial strains, we initiated adaptive laboratory evolution with the aim to maximize the level of antibiotic resistance in the populations achieved during a longer, but fixed time period.
An established protocol for adaptive laboratory evolution[46],[73] was followed to propagate populations with the highest resistance levels. Starting with an antibiotic concentration that caused approximately 50% growth inhibition, ten parallel populations for each antibiotic-ancestor strain combination were grown for 72 hours at 37 °C with continuous shaking (300 RPM). MHB broth medium was used unless stated otherwise. After each incubation, 20 µl of each culture was transferred to four new wells containing fresh medium with increasing antibiotic concentrations (0.5×, 1×, 1.5×, and 2.5× the previous concentration) in a chessboard layout to monitor potential cross-contamination. Growth was monitored by measuring OD600 using a Biotek Synergy 2 microplate reader, and only populations grown in the highest drug concentration with an OD600 > 0.2 were transferred further.
A robotic liquid handling system was used to automatically prepare a 11 to 16-step serial dilution in 384-well microtiter plates (Greiner). A final concentration of 5 × 10^5 bacterial cells per mL were inoculated into each well containing 60 µL MHB medium. Bacterial cultures were incubated at 37 °C with continuous shaking (Infors shaker, 900 rpm with 3 mm throw) for 18 hours (2 replicates from each). Cell growth was monitored by measuring the optical density (OD600 values, using Biotek Synergy microplate reader). MIC was defined as the antibiotic concentration of complete growth inhibition (i.e., OD600 < 0.05). Relative MIC was calculated as follows:1 relativeMIC=MICevolved/MICancestor […]
Supplementary Figure 4. Resistance levels following adaptive laboratory evolution across bacterial strains. The level of resistance was measured as the fold change in relative MIC between evolved and ancestral strains after ~60 days of adaptive laboratory evolution. Data are grouped by bacterial strain (A. baumannii (AB), E. coli (EC), K. pneumoniae (KP), and P. aeruginosa (PA)) and categorized as either multidrug-resistant (MDR) or sensitive (SEN). Each data point represents a laboratory evolved line, and boxplots show the median, first and third quartiles, with whiskers indicating the 5th and 95th percentiles.
Statistical analysis was performed using two-sided Dunn’s post-hoc test with Benjamini-Hochberg correction for multiple comparisons (****/ ***/ **/ * indicates p < 0.0001/ 0.001/ 0.01/ 0.05). For detailed information on antibiotic and bacterial species, see Supplementary Table 1. For mode of action groups, refer to Table 1. Source data are provided as a Source Data file.

[1] = PA-SEN (Pseudomonas aeruginosa ATCC BAA 3107), evolved line 5 adapted to the named antibiotic
[2] = PA-SEN (Pseudomonas aeruginosa ATCC BAA 3107), evolved line 7 adapted to the named antibiotic
[3] = Pseudomonas aeruginosa ATCC BAA 3107 (PA-SEN), evolved line 1
[4] = Pseudomonas aeruginosa ATCC BAA 3107 (PA-SEN), evolved line 2
[5] = Pseudomonas aeruginosa ATCC BAA 3107 (PA-SEN), evolved line 3
[6] = Pseudomonas aeruginosa ATCC BAA 3107 (PA-SEN), evolved line 4
[7] = Pseudomonas aeruginosa ATCC BAA 3107 (PA-SEN), evolved line 5
[8] = Pseudomonas aeruginosa ATCC BAA 3107 (PA-SEN), evolved line 6
[9] = Pseudomonas aeruginosa ATCC BAA 3107 (PA-SEN), evolved line 7
[10] = Pseudomonas aeruginosa ATCC BAA 3107 (PA-SEN), evolved line 8
[11] = Pseudomonas aeruginosa ATCC BAA 3107 (PA-SEN), evolved line 9
[12] = Pseudomonas aeruginosa ATCC BAA 3107 (PA-SEN), evolved line 10
[13] = PA-SEN, Pseudomonas aeruginosa ATCC BAA 3107, evolved line 1
[14] = PA-SEN, Pseudomonas aeruginosa ATCC BAA 3107, evolved line 4
[15] = PA-SEN, Pseudomonas aeruginosa ATCC BAA 3107, evolved line 5
[16] = PA-SEN, Pseudomonas aeruginosa ATCC BAA 3107, evolved line 7
[17] = PA-SEN, Pseudomonas aeruginosa ATCC BAA 3107, evolved line 8

C[C@H]1c2cccc(O)c2C(=O)C2=C(O)[C@]3(O)C(=O)C(C(N)=O)=C(O)[C@@H](N(C)C)[C@@H]3[C@@H](O)[C@@H]21 [Doxycycline]
64: Relative MIC (PA-SEN (ATCC BAA 3107), evolved line 1, MIC of evolved line / MIC of ancestor) | Relative MIC (PA-SEN (ATCC BAA 3107), evolved line 2, MIC of evolved line / MIC of ancestor) | Relative MIC (PA-SEN (ATCC BAA 3107), evolved line 3, MIC of evolved line / MIC of ancestor) | Relative MIC (PA-SEN (ATCC BAA 3107), evolved line 4, MIC of evolved line / MIC of ancestor) | Relative MIC (PA-SEN (ATCC BAA 3107), evolved line 5, MIC of evolved line / MIC of ancestor) | Relative MIC (PA-SEN (ATCC BAA 3107), evolved line 6, MIC of evolved line / MIC of ancestor) | Relative MIC (PA-SEN (ATCC BAA 3107), evolved line 7, MIC of evolved line / MIC of ancestor) | Relative MIC (PA-SEN (ATCC BAA 3107), evolved line 8, MIC of evolved line / MIC of ancestor) | Relative MIC (PA-SEN (ATCC BAA 3107), evolved line 9, MIC of evolved line / MIC of ancestor) | Relative MIC (PA-SEN (ATCC BAA 3107), evolved line 10, MIC of evolved line / MIC of ancestor) | Relative MIC [3] | Relative MIC [4] | Relative MIC [5] | Relative MIC [6] | Relative MIC [7] | Relative MIC [8] | Relative MIC [9] | Relative MIC [10] | Relative MIC [11] | Relative MIC [12]
1.806: Relative MIC (log10) (PA-SEN (Pseudomonas aeruginosa ATCC BAA 3107), evolved line 1 adapted to the named antibiotic) | Relative MIC (log10) (PA-SEN (Pseudomonas aeruginosa ATCC BAA 3107), evolved line 3 adapted to the named antibiotic) | Relative MIC (log10) [1] | Relative MIC (log10) [2] | Relative MIC (log10) (PA-SEN (Pseudomonas aeruginosa ATCC BAA 3107), evolved line 9 adapted to the named antibiotic)
256 µg/mL: MIC of evolved line (PA-SEN (ATCC BAA 3107), evolved line 2) | MIC of evolved line (PA-SEN (ATCC BAA 3107), evolved line 3) | MIC of evolved line (PA-SEN (ATCC BAA 3107), evolved line 4) | MIC of evolved line (PA-SEN (ATCC BAA 3107), evolved line 5) | MIC of evolved line (PA-SEN (ATCC BAA 3107), evolved line 6) | MIC of evolved line (PA-SEN (ATCC BAA 3107), evolved line 7) | MIC of evolved line (PA-SEN (ATCC BAA 3107), evolved line 8) | MIC of evolved line (PA-SEN (ATCC BAA 3107), evolved line 9) | MIC of evolved line (PA-SEN (ATCC BAA 3107), evolved line 10) | MIC of evolved line (PA-SEN ATCC BAA 3107, evolved line 1)

CN(C)[C@@H]1C(O)=C(C(N)=O)C(=O)[C@@]2(O)C(O)=C3C(=O)c4c(O)c(NC(=O)CN5CCCC5)cc(F)c4C[C@H]3C[C@@H]12 [Eravacycline]
1.204: Relative MIC (log10) [2]
256 µg/mL: MIC of evolved line (PA-SEN, Pseudomonas aeruginosa ATCC BAA 3107, evolved line 3) | MIC of evolved line [15]
64 µg/mL: MIC of evolved line [16] | MIC of evolved line [17] | MIC of evolved line (PA-SEN, Pseudomonas aeruginosa ATCC BAA 3107, evolved line 9)
1.806: Relative MIC (log10) [1]
1.505: Relative MIC (log10) (PA-SEN (Pseudomonas aeruginosa ATCC BAA 3107), evolved line 2 adapted to the named antibiotic) | Relative MIC (log10) (PA-SEN (Pseudomonas aeruginosa ATCC BAA 3107), evolved line 4 adapted to the named antibiotic) | Relative MIC (log10) (PA-SEN (Pseudomonas aeruginosa ATCC BAA 3107), evolved line 10 adapted to the named antibiotic)
32: Relative MIC (PA-SEN, Pseudomonas aeruginosa ATCC BAA 3107, evolved line 1 versus ancestor) | Relative MIC (PA-SEN, Pseudomonas aeruginosa ATCC BAA 3107, evolved line 2 versus ancestor) | Relative MIC (PA-SEN, Pseudomonas aeruginosa ATCC BAA 3107, evolved line 4 versus ancestor) | Relative MIC (PA-SEN, Pseudomonas aeruginosa ATCC BAA 3107, evolved line 6 versus ancestor) | Relative MIC (PA-SEN, Pseudomonas aeruginosa ATCC BAA 3107, evolved line 10 versus ancestor) | Relative MIC [3] | Relative MIC [4] | Relative MIC [6] | Relative MIC [8] | Relative MIC [12]
16: Relative MIC (PA-SEN, Pseudomonas aeruginosa ATCC BAA 3107, evolved line 7 versus ancestor) | Relative MIC (PA-SEN, Pseudomonas aeruginosa ATCC BAA 3107, evolved line 8 versus ancestor) | Relative MIC (PA-SEN, Pseudomonas aeruginosa ATCC BAA 3107, evolved line 9 versus ancestor) | Relative MIC [9] | Relative MIC [10] | Relative MIC [11]
64: Relative MIC (PA-SEN, Pseudomonas aeruginosa ATCC BAA 3107, evolved line 3 versus ancestor) | Relative MIC (PA-SEN, Pseudomonas aeruginosa ATCC BAA 3107, evolved line 5 versus ancestor) | Relative MIC [5] | Relative MIC [7]
128 µg/mL: MIC of evolved line [13] | MIC of evolved line (PA-SEN, Pseudomonas aeruginosa ATCC BAA 3107, evolved line 2) | MIC of evolved line [14] | MIC of evolved line (PA-SEN, Pseudomonas aeruginosa ATCC BAA 3107, evolved line 6) | MIC of evolved line (PA-SEN, Pseudomonas aeruginosa ATCC BAA 3107, evolved line 10)

CC[C@H](C)CCCCC(=O)N[C@@H](CCN)C(=O)N[C@H](C(=O)N[C@@H](CCN)C(=O)N[C@H]1CCNC(=O)[C@H]([C@@H](C)O)NC(=O)[C@H](CCN)NC(=O)[C@H](CCN)NC(=O)[C@H](CC(C)C)NC(=O)[C@@H](Cc2ccccc2)NC(=O)[C@H](CCN)NC1=O)[C@@H](C)O [Polymyxin B] (X2-[Dab]T[Dab][Dab][Dab][dF]L[Dab][Dab]T; lactam 4-C (inferred); N-terminus assumed)
1.204 log10: Relative MIC (log10) (PA-MDR, Pseudomonas aeruginosa LESB 58, evolved line 7) | Relative MIC (log10) [16] | Relative MIC (log10) [17]
2.107 log10: Relative MIC (log10) (PA-MDR, Pseudomonas aeruginosa LESB 58, evolved line 2)
1.806 log10: Relative MIC (log10) (PA-MDR (Pseudomonas aeruginosa LESB 58), evolved line 6) | Relative MIC (log10) (PA-MDR, Pseudomonas aeruginosa LESB 58, evolved line 9)
1.505 log10: Relative MIC (log10) (PA-MDR (Pseudomonas aeruginosa LESB 58), evolved line 1) | Relative MIC (log10) [13] | Relative MIC (log10) [14] | Relative MIC (log10) [15]
